Like-named read-outs stand apart in the source and are kept apart here.
Legend:
A549 cells = assay: MTT cytotoxicity assay on non-small cell lung cancer cells; conditions: for IC50: read-out: A549 IC50
MDA-MB-231 cells = assay: MTT cytotoxicity assay on breast cancer cells; conditions: for IC50: read-out: MDA-MB-231 IC50
EGFR^WT = EGFR^WT (Homo sapiens, UniProt P00533); assay: EGFR^WT kinase inhibition assay; type: biochemical
c-Myc [1] = assay: mRNA expression; type: cell-based, human; conditions: MDA-MB-231 cells; reduction to
EGFR^L858R/T790M/C797S = EGFR^L858R/T790M/C797S (Homo sapiens, UniProt P00533, C797S/L858R/T790M); assay: biochemical
miRNA-200c [2] = assay: miRNA-200c expression in MDA-MB-231 cells; type: cell-based, human; conditions: elevation
BEAS-2B cells = assay: MTT cytotoxicity assay on normal human lung epithelial cells; conditions: 48 h, read-out: BEAS-2B IC50
caspase-9 = assay: Caspase-9 activation assay; type: cell-based, human; conditions: A549 cells, compound at its IC50 concentration, 48 h
CD-44 = assay: mRNA expression; type: cell-based, human; conditions: MDA-MB-231 cells; reduction to
miRNA-132 [3] = assay: miRNA-132 expression in MDA-MB-231 cells; type: cell-based, human; conditions: elevation
miRNA-132 [4] = assay: miRNA-132 expression in A549 cells; type: cell-based, human; conditions: enhancement
CD-133 = assay: mRNA expression; type: cell-based, human; conditions: MDA-MB-231 cells; reduction to
TGF [5] = assay: mRNA expression; type: cell-based, human; conditions: A549 cells
VEGF = assay: mRNA expression; type: cell-based, human; conditions: MDA-MB-231 cells; reduction to
miRNA-200c [6] = assay: miRNA-200c expression in A549 cells; type: cell-based, human; conditions: enhancement
c-Myc [7] = assay: mRNA expression; type: cell-based, human; conditions: A549 cells
TGF [8] = assay: mRNA expression; type: cell-based, human; conditions: MDA-MB-231 cells; reduction to
caspase-3 = assay: Caspase-3 activation assay; type: cell-based, human; conditions: A549 cells, compound at its IC50 concentration, 48 h

Sequence of EGFR^L858R/T790M/C797S (P00533 25-1210 T790M/C797S/L858R): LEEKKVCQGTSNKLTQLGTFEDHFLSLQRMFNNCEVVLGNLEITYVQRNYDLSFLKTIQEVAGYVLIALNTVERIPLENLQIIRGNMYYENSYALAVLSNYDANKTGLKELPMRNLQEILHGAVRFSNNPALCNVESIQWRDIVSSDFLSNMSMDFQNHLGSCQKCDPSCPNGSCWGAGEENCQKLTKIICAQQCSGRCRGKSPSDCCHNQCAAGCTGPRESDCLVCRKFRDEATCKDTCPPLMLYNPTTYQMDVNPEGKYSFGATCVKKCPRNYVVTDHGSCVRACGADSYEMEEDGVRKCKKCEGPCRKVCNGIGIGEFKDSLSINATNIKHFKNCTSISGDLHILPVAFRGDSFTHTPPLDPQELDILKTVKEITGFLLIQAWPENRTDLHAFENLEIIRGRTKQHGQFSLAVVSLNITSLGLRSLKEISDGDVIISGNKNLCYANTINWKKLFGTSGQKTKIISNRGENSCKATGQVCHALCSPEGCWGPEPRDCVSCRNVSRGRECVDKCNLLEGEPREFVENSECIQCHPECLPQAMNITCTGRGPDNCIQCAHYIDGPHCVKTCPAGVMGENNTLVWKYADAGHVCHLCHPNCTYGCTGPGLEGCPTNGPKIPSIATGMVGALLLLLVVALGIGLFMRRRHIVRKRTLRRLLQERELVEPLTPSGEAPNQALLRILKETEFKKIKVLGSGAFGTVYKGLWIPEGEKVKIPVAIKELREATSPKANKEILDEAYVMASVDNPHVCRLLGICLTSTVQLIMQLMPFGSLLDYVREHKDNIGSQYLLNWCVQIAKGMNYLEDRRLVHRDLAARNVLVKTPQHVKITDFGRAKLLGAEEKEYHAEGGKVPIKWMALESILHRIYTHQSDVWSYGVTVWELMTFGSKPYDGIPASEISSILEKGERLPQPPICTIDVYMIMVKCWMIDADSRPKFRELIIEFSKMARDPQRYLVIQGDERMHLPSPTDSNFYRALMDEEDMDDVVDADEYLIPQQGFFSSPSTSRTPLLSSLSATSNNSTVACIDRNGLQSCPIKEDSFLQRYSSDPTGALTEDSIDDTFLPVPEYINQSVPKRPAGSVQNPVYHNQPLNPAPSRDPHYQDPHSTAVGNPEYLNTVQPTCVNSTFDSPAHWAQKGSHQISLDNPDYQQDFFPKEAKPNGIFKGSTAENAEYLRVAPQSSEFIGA
Sequence of EGFR^WT (P00533 25-1210): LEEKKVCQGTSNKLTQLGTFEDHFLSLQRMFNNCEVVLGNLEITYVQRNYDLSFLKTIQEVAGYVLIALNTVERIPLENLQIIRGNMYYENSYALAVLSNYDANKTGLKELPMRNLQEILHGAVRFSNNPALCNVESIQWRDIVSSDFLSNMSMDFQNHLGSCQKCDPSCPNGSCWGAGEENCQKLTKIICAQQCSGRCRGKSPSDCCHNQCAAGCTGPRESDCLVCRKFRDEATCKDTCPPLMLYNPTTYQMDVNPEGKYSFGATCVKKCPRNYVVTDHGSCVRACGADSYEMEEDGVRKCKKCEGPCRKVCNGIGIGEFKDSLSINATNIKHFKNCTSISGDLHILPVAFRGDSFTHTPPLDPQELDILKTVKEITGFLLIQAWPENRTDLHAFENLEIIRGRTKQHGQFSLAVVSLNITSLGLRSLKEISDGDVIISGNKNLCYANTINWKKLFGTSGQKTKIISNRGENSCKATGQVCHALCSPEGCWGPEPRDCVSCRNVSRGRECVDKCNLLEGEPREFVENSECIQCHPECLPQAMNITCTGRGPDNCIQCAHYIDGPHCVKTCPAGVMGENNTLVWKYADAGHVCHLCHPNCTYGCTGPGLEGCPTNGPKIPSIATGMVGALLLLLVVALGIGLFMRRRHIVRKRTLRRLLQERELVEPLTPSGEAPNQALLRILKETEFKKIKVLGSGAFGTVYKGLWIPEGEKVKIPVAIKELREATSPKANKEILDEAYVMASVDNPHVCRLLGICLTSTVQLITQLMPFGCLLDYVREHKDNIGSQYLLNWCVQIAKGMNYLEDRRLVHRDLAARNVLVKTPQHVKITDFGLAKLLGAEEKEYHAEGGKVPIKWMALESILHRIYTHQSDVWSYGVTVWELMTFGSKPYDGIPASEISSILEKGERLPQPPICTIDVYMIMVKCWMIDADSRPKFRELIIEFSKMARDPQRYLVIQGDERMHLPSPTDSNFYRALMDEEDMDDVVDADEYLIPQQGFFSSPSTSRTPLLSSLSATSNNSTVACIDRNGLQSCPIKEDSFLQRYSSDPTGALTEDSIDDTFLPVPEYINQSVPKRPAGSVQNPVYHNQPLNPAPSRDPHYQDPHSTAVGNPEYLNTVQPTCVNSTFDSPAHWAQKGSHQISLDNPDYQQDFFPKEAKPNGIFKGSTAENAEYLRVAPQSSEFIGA

| SMILES | IC50 (BEAS-2B cells) [µM] | IC50 (A549 cells; Homo sapiens, A549, 48 h) [µM] | IC50 (MDA-MB-231 cells; Homo sapiens, MDA-MB-231, 48 h) [µM] | further results |
| --- | --- | --- | --- | --- |
| N.N.[Cl][Pt][Cl] [Cisplatin, cisplatin, reference compound] |  |  |  | IC50 (A549 cells; MTT assay, 48 h, mean ± SEM): 10.1 ± 0.7 µM; IC50 (MDA-MB-231 cells; MTT assay, 48 h, mean ± SEM): 12.2 ± 0.8 µM |
| O=C(Nc1ccc([N+](=O)[O-])cc1)C(c1ccc(C(F)(F)F)cc1)N(C(=O)c1ccccc1Cl)c1ccccc1 (stereo not shown) [Compound 5, 2-Chloro-N-(2-((4-nitrophenyl)amino)-2-oxo-1-(4-(trifluoromethyl)phenyl)ethyl)-N-phenylbenzamide] | 70.4 ± 5.1 | 6.2 ± 0.3 | 10.1 ± 0.6 | IC50 (EGFR^WT): 0.0021 ± 1e-05 µM; expression of c-Myc compared to untreated control (c-Myc [1]): 0.36 fold; IC50 (EGFR^L858R/T790M/C797S): 0.19 ± 0.05 µM; miRNA-200c expression, fold change compared to control (miRNA-200c [2]): 3.1 fold; upregulation of caspase-9 compared to the untreated control (caspase-9): 2.3 folds; expression of CD-44 compared to untreated control (CD-44): 0.5 fold; miRNA-132 expression, fold change compared to control (miRNA-132 [3]): 3.8 fold; miRNA-132 expression, fold change compared to control (miRNA-132 [4]): 2.4 fold; expression of CD-133 compared to untreated control (CD-133): 0.7 fold; fold reduction in the expression of TGF in comparison to untreated control (TGF [5]): 0.69 fold; expression of VEGF compared to untreated control (VEGF): 0.5 fold; miRNA-200c expression, fold change compared to control (miRNA-200c [6]): 1.9 fold; fold reduction in the expression of c-Myc in comparison to untreated control (c-Myc [7]): 0.41 fold; fold more potent than 5-FU (A549 cells; A549 cells, ratio of IC50 values): 1.82 fold; expression of TGF compared to untreated control (TGF [8]): 0.4 fold; upregulation of caspase-3 compared to the untreated control (caspase-3): 1.8 folds; fold more potent than 5-FU (MDA-MB-231 cells; MDA-MB-231 cells, ratio of IC50 values): 1.42 fold |
| O=c1[nH]cc(F)c(=O)[nH]1 [Compound 5-FU, 5-fluorouracil, reference compound] | 7.2 ± 0.5 | 11.3 ± 1.1 | 14.4 ± 0.9 |  |
| Cc1ccc(N(C(=O)c2ccccc2Cl)C(C(=O)Nc2ccc([N+](=O)[O-])cc2)c2ccc(C(F)(F)F)cc2)cc1 (stereo not shown) [Compound 6, 2-Chloro-N-(2-((4-nitrophenyl)amino)-2-oxo-1-(4-(trifluoromethyl)phenyl)-ethyl)-N-(p-tolyl)benzamide] | 50.1 ± 3.6 | 39.9 ± 2.7 | 54.2 ± 4.7 |  |
| O=C(Nc1ccc([N+](=O)[O-])cc1)C(c1ccc(C(F)(F)F)cc1)N(C(=O)c1ccccc1I)c1ccccc1 (stereo not shown) [Compound 7, 2-Iodo-N-(2-((4-nitrophenyl)amino)-2-oxo-1-(4-(trifluoromethyl)phenyl)ethyl)-N-phenyl-benzamide] | 75.6 ± 5.8 | 20.6 ± 1.5 | 28.2 ± 1.4 |  |
| Cc1ccc(N(C(=O)c2ccccc2I)C(C(=O)Nc2ccc([N+](=O)[O-])cc2)c2ccc(C(F)(F)F)cc2)cc1 (stereo not shown) [Compound 8, 2-Iodo-N-(2-((4-nitrophenyl)amino)-2-oxo-1-(4-(trifluoromethyl)phenyl)ethyl)-N-(p-tolyl)-benzamide] | 62.2 ± 4.2 | 20.5 ± 1.1 | 27.1 ± 1.8 |  |
| O=C(Nc1ccc([N+](=O)[O-])cc1)C(c1ccc(C(F)(F)F)cc1)N(C(=O)Cc1ccccc1)c1ccccc1 (stereo not shown) [Compound 9, 2-(N,2-Diphenylacetamido)-N-(4-nitrophenyl)-2-(4-(trifluoromethyl)phenyl)acetamide] | 71.6 ± 5.7 | 46.4 ± 2.8 | 70.6 ± 6.1 |  |
| Cc1ccc(N(C(=O)Cc2ccccc2)C(C(=O)Nc2ccc([N+](=O)[O-])cc2)c2ccc(C(F)(F)F)cc2)cc1 (stereo not shown) [Compound 10, N-(4-Nitrophenyl)-2-(2-phenyl-N-(p-tolyl)acetamido)-2-(4-(trifluoromethyl)phenyl)-acetamide] | 83.3 ± 6.8 | 71.5 ± 6.8 | 84.4 ± 6.9 |  |
| O=C(NCC(=O)N(c1ccccc1)C(C(=O)Nc1ccc([N+](=O)[O-])cc1)c1ccc(C(F)(F)F)cc1)c1ccccc1 (stereo not shown) [Compound 11, N-(2-((2-((4-Nitrophenyl)amino)-2-oxo-1-(4-(trifluoromethyl)phenyl)ethyl)(phenyl)amino)-2-oxoethyl)benzamide] | 82.1 ± 7.3 | 53.9 ± 4.4 | 60.2 ± 4.9 |  |
| Cc1ccc(N(C(=O)CNC(=O)c2ccccc2)C(C(=O)Nc2ccc([N+](=O)[O-])cc2)c2ccc(C(F)(F)F)cc2)cc1 (stereo not shown) [Compound 12, N-(2-((2-((4-Nitrophenyl)amino)-2-oxo-1-(4-(trifluoromethyl)phenyl)ethyl)(p-tolyl)amino)-2-oxoethyl)benzamide] | 98.2 ± 8.1 | 73.1 ± 6.6 | 65.3 ± 4.7 |  |
| O=C(Nc1ccc([N+](=O)[O-])cc1)C(c1ccc(C(F)(F)F)cc1)N(C(=O)CNS(=O)(=O)c1ccccc1)c1ccccc1 (stereo not shown) [Compound 13, N-(4-Nitrophenyl)-2-(N-phenyl-2-(phenylsulfonamido)acetamido)-2-(4-(trifluoromethyl)-phenyl)acetamide] | 98.5 ± 7.4 | 64.1 ± 5.9 | 73.9 ± 5.3 |  |
| Cc1ccc(N(C(=O)CNS(=O)(=O)c2ccccc2)C(C(=O)Nc2ccc([N+](=O)[O-])cc2)c2ccc(C(F)(F)F)cc2)cc1 (stereo not shown) [Compound 14, N-(4-Nitrophenyl)-2-(2-(phenylsulfonamido)-N-(p-tolyl)acetamido)-2-(4-(trifluoromethyl)-phenyl)acetamide] | 84.7 ± 6.9 | 55.3 ± 4.2 | 74.8 ± 6.1 |  |
| O=C(Nc1ccc([N+](=O)[O-])cc1)C(c1ccc(C(F)(F)F)cc1)N(Cc1ccccc1)C(=O)Cc1ccccc1 (stereo not shown) [Compound 15, N-Benzyl-N-(2-((4-nitrophenyl)amino)-2-oxo-1-(4-(trifluoromethyl)phenyl)-ethyl)-2-phenyl-acetamide] | 69.4 ± 4.7 | 61.1 ± 4.5 | 65.7 ± 5.4 |  |
| O=C(NCC(=O)N(Cc1ccccc1)C(C(=O)Nc1ccc([N+](=O)[O-])cc1)c1ccc(C(F)(F)F)cc1)c1ccccc1 (stereo not shown) [Compound 16, N-(2-(Benzyl(2-((4-nitrophenyl)amino)-2-oxo-1-(4-(trifluoromethyl)phenyl)ethyl)amino)-2-oxoethyl)benzamide] | 63.8 ± 4.8 | 22.4 ± 0.8 | 27.3 ± 1.5 |  |
| O=C(Nc1ccc([N+](=O)[O-])cc1)C(c1ccc(C(F)(F)F)cc1)N(Cc1ccccc1)C(=O)CNS(=O)(=O)c1ccccc1 (stereo not shown) [Compound 17, N-Benzyl-N-(2-((4-nitrophenyl)amino)-2-oxo-1-(4-(trifluoromethyl)phenyl)ethyl)-2-(phenylsulfonamido)acetamide] | 50.2 ± 3.4 | 40.8 ± 2.8 | 57 ± 4.8 |  |
| O=C(Nc1ccc([N+](=O)[O-])cc1)C(c1ccc(C(F)(F)F)cc1)N(C(=O)c1ccc2ccccc2n1)c1ccccc1 (stereo not shown) [Compound 18, N-(2-((4-Nitrophenyl)amino)-2-oxo-1-(4-(trifluoromethyl)phenyl)ethyl)-N-phenylquinoline-2-carboxamide] | 55.7 ± 3.5 | 20.1 ± 1.4 | 25.1 ± 1.9 |  |
| Cc1ccc(N(C(=O)c2ccc3ccccc3n2)C(C(=O)Nc2ccc([N+](=O)[O-])cc2)c2ccc(C(F)(F)F)cc2)cc1 (stereo not shown) [Compound 19, N-(2-((4-Nitrophenyl)amino)-2-oxo-1-(4-(trifluoromethyl)phenyl)ethyl)-N-(p-tolyl)-quinoline-2-carboxamide] | 50.1 ± 3.3 | 46.2 ± 4.1 | 73.1 ± 5.7 |  |
| O=C(Nc1ccc([N+](=O)[O-])cc1)C(c1ccccc1)N(C(=O)/C=C/c1ccc(C(F)(F)F)cc1)c1ccccc1 (stereo not shown) [Compound 23, (E)-N-(2-((4-Nitrophenyl)amino)-2-oxo-1-phenylethyl)-N-phenyl-3-(4-(trifluoromethyl)-phenyl)acrylamide] | 30.9 ± 2.3 | 26.1 ± 2.1 | 30.3 ± 2.4 |  |
| Cc1ccc(N(C(=O)/C=C/c2ccc(C(F)(F)F)cc2)C(C(=O)Nc2ccc([N+](=O)[O-])cc2)c2ccccc2)cc1 (stereo not shown) [Compound 24, (E)-N-(2-((4-Nitrophenyl)amino)-2-oxo-1-phenylethyl)-N-(p-tolyl)-3-(4-(trifluoromethyl)-phenyl)acrylamide] | 54.2 ± 4.1 | 20.4 ± 1.7 | 22.1 ± 1.6 |  |
| O=C(Nc1ccc([N+](=O)[O-])cc1)C(c1ccccc1)N(Cc1ccccc1)C(=O)/C=C/c1ccc(C(F)(F)F)cc1 (stereo not shown) [Compound 25, (E)-N-Benzyl-N-(2-((4-nitrophenyl)amino)-2-oxo-1-phenylethyl)-3-(4-(trifluoromethyl)-phenyl)acrylamide] | 129 ± 8.7 | 90.2 ± 8.5 | 95.4 ± 8.1 |  |

Reference: PMC12150293 (RSC Advances, 2025)
